Assay [1] relates to N2. Particulars: cited from earlier work.
Assay [2] relates to Streptococcus 6646K NA (StrepNA). It counts as biochemical.
For assay [3], the target named is A/RI/5+/1957(H2N2) NA (N2) (Influenza A virus, UniProt Q194T1). Put plainly: biochemical. It counts as biochemical, influenza A/RI/5+/1957(H2N2).
In assay [4] the target is Clostridium perfringens NanJ NA (CpNA) (Clostridium perfringens, UniProt A0A0H2YT71). The assay is classed as biochemical.
In assay [5] the test system is influenza NA. Particulars: cited from earlier work.

Chain of Clostridium perfringens NanJ NA (CpNA) (A0A0H2YT71 27-1173 limits assumed): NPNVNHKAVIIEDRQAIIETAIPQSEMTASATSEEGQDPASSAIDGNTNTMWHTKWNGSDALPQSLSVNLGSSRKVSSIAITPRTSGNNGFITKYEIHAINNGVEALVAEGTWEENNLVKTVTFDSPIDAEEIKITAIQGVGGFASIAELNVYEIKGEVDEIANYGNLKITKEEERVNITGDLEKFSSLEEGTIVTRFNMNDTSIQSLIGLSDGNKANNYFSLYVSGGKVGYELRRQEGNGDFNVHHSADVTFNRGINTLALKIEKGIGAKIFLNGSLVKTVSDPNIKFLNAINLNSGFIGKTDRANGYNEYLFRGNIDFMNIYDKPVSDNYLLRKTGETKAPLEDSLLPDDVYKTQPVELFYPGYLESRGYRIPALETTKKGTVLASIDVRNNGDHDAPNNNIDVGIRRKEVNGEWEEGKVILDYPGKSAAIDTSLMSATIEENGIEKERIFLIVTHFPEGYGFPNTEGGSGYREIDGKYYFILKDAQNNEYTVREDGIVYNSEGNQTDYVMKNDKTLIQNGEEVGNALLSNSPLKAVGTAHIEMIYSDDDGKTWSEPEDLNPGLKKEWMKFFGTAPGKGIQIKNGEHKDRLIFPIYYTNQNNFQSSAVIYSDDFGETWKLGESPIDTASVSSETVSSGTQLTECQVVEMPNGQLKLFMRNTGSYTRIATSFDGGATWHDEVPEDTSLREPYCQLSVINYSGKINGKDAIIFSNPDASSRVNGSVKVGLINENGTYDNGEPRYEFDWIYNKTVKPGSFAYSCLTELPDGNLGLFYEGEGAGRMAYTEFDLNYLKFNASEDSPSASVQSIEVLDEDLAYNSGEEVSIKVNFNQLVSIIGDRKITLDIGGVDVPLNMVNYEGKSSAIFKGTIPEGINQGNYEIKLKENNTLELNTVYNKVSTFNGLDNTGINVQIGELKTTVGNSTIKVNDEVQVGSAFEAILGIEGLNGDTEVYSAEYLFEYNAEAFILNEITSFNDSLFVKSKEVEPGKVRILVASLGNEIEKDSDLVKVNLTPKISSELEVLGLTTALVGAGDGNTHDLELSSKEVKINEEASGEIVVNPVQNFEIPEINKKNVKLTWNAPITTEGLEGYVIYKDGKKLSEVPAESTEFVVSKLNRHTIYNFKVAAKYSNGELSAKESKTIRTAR

In the case of `CC(=O)N[C@H]1[C@H]([C@H](O)[C@H](O)CO)OC(C(=O)O)=C[C@@H]1O` [Neu4Ac2en, 2,3-dehydro-2-deoxy-N-acetylneuraminic acid], the IC50 in assay [1] was 19 µM.

`CC(=O)N[C@H]1[C@H]([C@H](O)[C@H](O)CO)O[C@H](S(=O)(=O)O)C[C@@H]1O` [7a, 4-Acetamido-1-sulfo-1,2,4-trideoxy-D-glycero-D-galacto-octopyranose] had a 50% inhibitory concentration (IC50) in assay [2] of 3.74 µM. Also, in assay [3], it took 8.86 µM to reach half-maximal inhibition (IC50), the inhibition constant (Ki) was 2.47 µM and the “potency for inhibition of influenza N2 relative to eqPO3H” value came to 40 fold. In assay [4], the “potency for CpNA inhibition relative to eqPO3H” value is given as 8.5 fold. The IC50 in assay [4] (read-out: CpNA IC50) worked out at 37.5 µM.

On to `[H]/N=C(\N)N[C@H]1C=C(C(=O)O)O[C@@H]([C@H](OC)[C@H](O)CO)[C@@H]1NC(C)=O` [laninamivir], for which the “inhibition of influenza NA” value in assay [5] is recorded as “low nanomolar level”.

In assay [3], `CC(=O)N[C@@H]1C=C[C@H](S(=O)(=O)O)O[C@H]1[C@H](O)[C@H](O)CO` [8b, 4-Acetamido-1-sufo-2,3-didehydro-1,2,3,4-tetradeoxy-D-glycero-D-galacto-octopyranose] had an IC50 of 316 µM and an inhibition constant Ki of 88.1 µM.

In assay [3], `CC(=O)N[C@H]1[C@H]([C@H](O)[C@H](O)CO)O[C@@H](S(=O)(=O)O)C[C@@H]1O` [7b, 4-Acetamido-1-sulfo-1,2,4-trideoxy-D-glycero-D-galacto-octopyranose] came in with an IC50 of 120 µM and an inhibition constant Ki of 33.5 µM.

As to `CCOC(=O)C1=C[C@@H](OC(CC)CC)[C@H](NC(C)=O)[C@@H](N)C1` [oseltamivir], the “inhibition of influenza NA” value in assay [5] is listed as “low nanomolar level”.

Turning to `CC(=O)N[C@H]1[C@H]([C@H](O)[C@H](O)CO)OC(C(=O)O)=C[C@@H]1N=C(N)N` [zanamivir], the “inhibition of influenza NA” value in assay [5] is listed as “low nanomolar level”.

Turning to peramivir, the “inhibition of influenza NA” value in assay [5] was “low nanomolar level”.

The values are drawn from PMC5557986 (Scientific Reports, 2017).
